Experimental data: patent US5719145A, “Amidine derivatives and platelet aggregation inhibitor containing the same” (Mitsui Toatsu Chemicals, Inc., priority 1996, dated 1998)
Structures can show the parent of a compound that is named as a salt.

Columns and labels:
[1] = molecular target: T1, human fibrinogen receptor GP IIb/IIIa (Homo sapiens, UniProt P05106+P08514); experiment: Binding inhibition of biotinylated fibrinogen to GP IIb/IIIa; settings: purified human GP IIb/IIIa, read-out: Inhibition of GPIIb/IIIa . Fibrinogen Binding, IC50
T1 construct: Concentrated and lyophilized human platelet (20 vial) (Organon Teknika Co.) was lysed; tissue Organon Teknika Co; host or cells: human platelets (lyophilized), lysed in Triton X-100
Method: Experiment for binding inhibition between GP IIb/IIIa and fibrinogen
1. Purification of human fibrinogen receptor GP IIb/IIIa
Concentrated and lyophilized human platelet (20 vial) (Organon Teknika Co.) was lysed in an antienzymic solution (80 ml) (1% Triton X-100, 10 mM Tris-HCl, 150 mM NaCl, 1 mM CaCl2, 10 μM leupeptin, 1 mM phenylmethane sulfonyl fluoride, pH 7.4), allowed to incubate for an hour at 4° C., and centrifuged at 30,000×g for 15 minutes to recover the supernatant solution containing 150 mg of protein. The GP IIb/IIIa was purified according to the method of Phillips et al. [Methods in Enzymology Vol. 215, (J. J. Hawigar, Eds.), 244-263, Acedemic Press Inc., San Diego].
2. Preparation of biotinylated fibrinogen
Human fibrinogen Grade L (KABI Co.) was purified by using Shepharose CL-6B and Lysine-Sepharose. Thus purified human fibrinogen (2.3 mg/ml) was dialyzed for 3 hours with 0.1M aqueous sodium bicarbonate solution at room temperature and successively diluted to 1 mg/ml. To the solution (4.5 ml) obtained, NHC-LC-Biotin (2 mg) (Pierce Co.) was added and reacted for 1 hour at room temperature to biotinylate fibrinogen. The reaction mixture was dialyzed at 4° C. for 24 hours with TBS (20 mM Tris-HCl, 150 mM NaCl, 1 mM CaCl2, 1 mM MgCl2, pH 7.4) to obtain biotinylated fibrinogen.
3. Binding inhibition of biotinylated fibrinogen to GP IIb/IIIa
Specimen drugs were dissolved and diluted with TBS containing 1% BSA. To each solution, an equal volume of biotinylated fibrinogen (2 μg/ml) dissolved in TBS containing 1% BSA, was added. The inhibition percentage of specimen drugs were measured by the method of Mori et al. [Jpn. J. Thromb. Hemost., 2, 323-399 (1991) with small modification].
Purified GP IIb/IIIa was diluted to 1.5 μg/ml in TBS containing 0.0005% of Triton X-100. The GP IIb/IIIa solution was added to a 96 well microplate (E.I.A/R.I.A. Plate, Costar Co.) in a volume of 100 μl for each well, and incubated at 4° C. for 24 hours to immobilize GP IIb/IIIa. The microplate was washed twice with a washing solution (TBS containing 0.01% of Tween 20). Thereafter TBS containing 3.5% of BSA was added to each well in a volume of 200 μl and blocking was carried out for about an hour at room temperature. The microplate was further washed twice with the washing solution, and successively a mixture of the specimen drug and the biotinylated fibrinogen was added in a volume of 100 μl/well and incubated for 24 hours at room temperature. The microplate was thereafter washed five times, and peroxidase-labeled streptoavidin (a kit of Amersham Co.) which was previously diluted 3000 times with TBS was added in a volume of 100 μl/well and incubated for about 30 minutes at room temperature. After washing the microplate 5 times, a 0.05M phosphate-citrate buffer solution (pH5) containing o-phenylenediamine(0.4 mg/ml) (manufactured by Sigma Co.) and H2 O2 (0.012%) was added in a volume of 200 μl/well to develop color for 20-40 minutes. The reaction was stopped by addition of 0.3M sulfuric acid in a volume of 50 μl/well and absorbance at 490 nm was measured with Immunoreader NJ-200 (manufactured by Inter Med Co.). […]

[2] = system: guinea pig platelets (platelet-rich plasma); experiment: In vitro inhibition of platelet aggregation in guinea pig (ADP-induced, PRP); type: cell-based; settings: Cavia porcellus, ADP final concentration 5 μM, read-out: Platelet aggregation inhibitory activity in guinea pig, IC50
Method: In vitro experiment of platelet aggregation inhibition
1. Inhibition of platelet aggregation in Guinea pig
Blood of male guinea pig was collected with an injection syringe which contains 3.8 % sodium citrate as an anticoagulant in a ratio of 1 volume to 9 volumes of the blood. Successively, the collected blood mixture was subjected to centrifugation at 120×g for 15 minutes at room temperature to obtain platelet-rich plasma (PRP). An aliquot of PRP was further subjected to centrifugation at 1,200×g for 15 minutes to obtain platelet-poor plasma (PPP). Numbers of the platelet in PRP were measured with an automatic platelet counter: Sysmex PL-100 (manufactured by Toa Iyodenshi Co.) and PRP was diluted with PPP so as to adjust a platelet concentration to be about 300,000 particles/ μl. Platelet aggregation was measured by the following procedure with a 6 channel aggregometer: HEMA TRACER 1 (manufactured by NKK Co.).
(§1) After incubation of 240 μl of PRP at 37° C. for 2 minutes, 30 μl of the solvent of specimen as a control or of the specimen in various concentrations was added to PRP. Further 2 minutes later, 30 μl of adenosine diphosphate (final concentration: 5μM) was added to induce platelet aggregation. An inhibition percentage was obtained by comparing the maximum aggregation of the specimen drug group with that of control. […]

[3] = system: human platelets (platelet-rich plasma); experiment: In vitro inhibition of platelet aggregation in human (ADP-induced, PRP); type: cell-based; settings: ADP final concentration 5 μM, read-out: Platelet aggregation inhibitory activity in human, IC50
Method: 2. Inhibition of platelet aggregation in human
Blood was collected from healthy human volunteers with an injection syringe and mixed one volume of 3.8% of sodium citrate as an anticoagulant to 9 volumes of the blood. Successively, the obtained blood mixture was subjected to centrifugation at 120×g for 15 minutes at room temperature to obtain platelet-rich plasma (PRP). An aliquot of PRP was further subjected to centrifugation at 1,200×g for 20 minutes to obtain platelet-poor plasma (PPP). Numbers of the platelet were measured with an automatic platelet counter: Sysmex PL-100 (manufactured by Toa Iyodenshi Co.) and PRP was diluted with PPP so as to adjust a platelet concentration to be about 250,000 particles/μl. Platelet aggregation was measured by the following procedure with a 6 channel aggregometer: HEMA TRACER 1 (manufactured by NKK Co.)
as §1, with “or” for “or of”, “5 μM)” for “5μM)”

[4] = system: guinea pig platelets (platelet-rich plasma); experiment: Inhibition against platelet aggregation ability after oral administration in guinea pig; type: in vivo; settings: Cavia porcellus, 1 h, oral administration: 37 μmol/kg, blood collected after an hour, ADP 5 μM, read-out: Aggregation inhibiting rate (%)
Method: Experiment for inhibition against platelet aggregation ability after oral administration The specimen drug was dissolved or suspended at a concentration of 18.5 μmol/ml in a physiological saline containing 0.5% of Tween 80. […] A physiological saline containing 0.5% of Tween 80 was similarly administered as a control. […] The blood mixture was centrifuged at 800 r.p.m. for 20 minutes at room temperature to obtain PRP in the upper layer. The lower layer was further centrifuged at 3000 r.p.m. for 15 minutes to obtain PPP in upper layer. […] Platelet aggregation ability was measured according to the method for measuring in vitro platelet aggregation. […] HEMA TRACER 1 (manufactured by NKK Co.). After incubation of PRP at 37° C. for 2 minutes, a physiological saline (30 μl) was added. […] An inhibiting ratio was obtained by comparing the maximum aggregation of the specimen drug group with that of control.

T1 sequence (P08514 32-887 limits assumed): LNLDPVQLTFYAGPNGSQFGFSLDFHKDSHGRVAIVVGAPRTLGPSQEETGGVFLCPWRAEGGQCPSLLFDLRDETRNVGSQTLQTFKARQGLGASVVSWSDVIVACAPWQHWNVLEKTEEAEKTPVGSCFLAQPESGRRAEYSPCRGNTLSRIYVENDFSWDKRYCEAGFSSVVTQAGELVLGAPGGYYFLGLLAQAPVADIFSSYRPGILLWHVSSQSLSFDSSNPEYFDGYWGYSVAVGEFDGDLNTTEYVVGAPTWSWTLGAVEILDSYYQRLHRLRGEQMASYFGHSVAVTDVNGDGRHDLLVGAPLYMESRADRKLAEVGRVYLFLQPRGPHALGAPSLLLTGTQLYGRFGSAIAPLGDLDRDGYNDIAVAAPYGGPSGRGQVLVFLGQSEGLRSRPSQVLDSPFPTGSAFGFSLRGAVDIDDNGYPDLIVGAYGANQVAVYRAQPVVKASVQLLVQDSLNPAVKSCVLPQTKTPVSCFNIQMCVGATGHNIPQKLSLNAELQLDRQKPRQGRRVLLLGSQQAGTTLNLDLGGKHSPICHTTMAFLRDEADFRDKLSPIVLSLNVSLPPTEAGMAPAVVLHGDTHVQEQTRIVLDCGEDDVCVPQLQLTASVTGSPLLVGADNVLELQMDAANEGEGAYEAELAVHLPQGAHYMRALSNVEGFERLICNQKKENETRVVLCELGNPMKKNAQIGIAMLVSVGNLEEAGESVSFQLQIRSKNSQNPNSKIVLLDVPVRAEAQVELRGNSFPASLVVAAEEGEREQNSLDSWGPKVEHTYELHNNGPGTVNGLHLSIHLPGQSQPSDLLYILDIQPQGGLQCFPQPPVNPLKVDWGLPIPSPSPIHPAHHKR
T1 sequence (P08514 891-1039 partner limits assumed): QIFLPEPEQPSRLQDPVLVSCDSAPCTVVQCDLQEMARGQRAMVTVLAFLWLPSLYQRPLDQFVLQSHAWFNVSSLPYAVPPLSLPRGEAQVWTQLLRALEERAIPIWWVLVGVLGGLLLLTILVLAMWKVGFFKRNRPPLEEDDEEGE
T1 sequence (P05106 27-788): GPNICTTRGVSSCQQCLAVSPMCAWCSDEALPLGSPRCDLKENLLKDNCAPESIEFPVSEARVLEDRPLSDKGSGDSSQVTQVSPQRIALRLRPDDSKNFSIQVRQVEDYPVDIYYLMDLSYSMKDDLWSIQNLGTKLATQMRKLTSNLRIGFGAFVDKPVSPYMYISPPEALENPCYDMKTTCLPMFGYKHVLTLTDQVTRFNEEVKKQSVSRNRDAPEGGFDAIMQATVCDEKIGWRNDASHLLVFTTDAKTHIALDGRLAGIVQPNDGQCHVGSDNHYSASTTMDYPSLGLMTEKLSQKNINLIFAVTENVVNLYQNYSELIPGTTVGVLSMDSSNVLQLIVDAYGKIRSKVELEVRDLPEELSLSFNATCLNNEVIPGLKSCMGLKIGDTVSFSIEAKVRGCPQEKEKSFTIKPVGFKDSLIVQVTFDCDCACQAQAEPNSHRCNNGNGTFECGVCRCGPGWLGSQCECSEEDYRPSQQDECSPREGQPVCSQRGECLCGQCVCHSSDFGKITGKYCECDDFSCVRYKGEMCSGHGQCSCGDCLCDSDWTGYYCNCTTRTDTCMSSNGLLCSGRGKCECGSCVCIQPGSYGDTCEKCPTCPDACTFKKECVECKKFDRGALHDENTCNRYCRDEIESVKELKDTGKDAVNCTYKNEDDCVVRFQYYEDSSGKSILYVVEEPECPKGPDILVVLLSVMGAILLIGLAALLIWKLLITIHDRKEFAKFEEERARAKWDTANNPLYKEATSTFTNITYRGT

SMILES | IC50 [1] | IC50 [2] | IC50 [3] | inhibition at 37 µmol/kg [4]
C#CCNC(=N)c1ccc(C(=O)Nc2ccc3c(c2)CC(CC(=O)O)CC3)cc1 (single isomer, unassigned; (-)) [Example 46, (-)-7-[[4-(N^2-propargylamidino)benzoyl]amino]-1,2,3,4-tetrahydronaphthalene-2-acetic acid hydrochloride] | 0.11 nM | 150 nM | 29 nM | –
N=C(c1ccc(C(=O)Nc2ccc3c(c2)CC(CC(=O)O)CC3)cc1)N1CCOCC1 (single isomer, unassigned; (-)) [Example 48, (-)-7-[[4-(morpholinoiminomethyl)benzoyl]amino]-1,2,3,4-tetrahydronaphthalene-2-acetic acid hydrochloride] | 0.07 nM | 69 nM | 33 nM | –
C#CCNC(=N)c1ccc(C(=O)Nc2ccc3c(c2)CC(CC(=O)O)CO3)cc1 (single isomer, unassigned; (-)) [Example 50, (-)-6-[[4-(N^2-propargylamidino)benzoyl]amino]chroman-3-acetic acid hydrochloride] | 0.22 nM | 200 nM | 44 nM | –
N=C(c1ccc(C(=O)Nc2ccc3c(c2)CC(CC(=O)O)CO3)cc1)N1CCOCC1 (single isomer, unassigned; (-)) [Example 52, (-)-6-[[4-(morpholinoiminomethyl)benzoyl]amino]chroman-3-acetic acid hydrochloride] | 0.13 nM | 110 nM | 35 nM | –
N=C(c1ccc(C(=O)Nc2ccc3c(c2)CC(CC(=O)O)CC3)cc1)N1CCOCC1 (stereo not shown) [Example 2, 7-[[4-(morpholinoiminomethyl)benzoyl]amino]-1,2,3,4-tetrahydronaphthalene-2-acetic acid hydrochloride] | 0.13 nM | 140 nM | 68 nM | –
N=C(c1ccc(C(=O)Nc2ccc3c(c2)CC(CC(=O)O)CO3)cc1)N1CCOCC1 (stereo not shown) [Example 5, 6-[[4-(morpholinoiminomethyl)benzoyl]amino]chroman-3-acetic acid hydrochloride] | – | – | 66 nM | –
N=C(c1ccc(C(=O)Nc2ccc3c(c2)OCC(CC(=O)O)C3)cc1)N1CCOCC1 (stereo not shown) [Example 9, 7-[[4-(morpholinoiminomethyl)benzoyl]amino]chroman-3-acetic acid hydrochloride] | – | – | 171 nM | –
CN1CCN(C(=N)c2ccc(C(=O)Nc3ccc4c(c3)CC(CC(=O)O)CC4)cc2)CC1 (stereo not shown) [Example 15, dihydrochloride] | – | – | 110 nM | –
N=C(c1ccc(C(=O)Nc2ccc3c(c2)CC(CC(=O)O)CC3)cc1)N1CCCCC1 (stereo not shown) [Example 18, 7-[[4-(piperidinoiminomethyl)benzoyl]amino]-1,2,3,4-tetrahydronaphthalene-2-acetic acid hydrochloride] | 0.26 nM | – | 140 nM | –
C#CCNC(=N)c1ccc(C(=O)Nc2ccc3c(c2)CC(CC(=O)O)CO3)cc1 (stereo not shown) [Example 27, 6-[[4-(N^2-propargylamidino)benzoyl]amino]chroman-3-acetic acid hydrochloride] | – | – | 78 nM | –
NC(=NCc1ccco1)c1ccc(C(=O)Nc2ccc3c(c2)CC(CC(=O)O)CC3)cc1 (stereo not shown) [Example 30, 7-[[4-[N^2-(2-furfuryl)amidino]benzoyl]amino]-1,2,3,4-tetrahydronaphthalene-2-aceticacid hydrochloride] | 0.14 nM | 180 nM | – | –
N=C(NCc1ccco1)c1ccc(C(=O)Nc2ccc3c(c2)CN(CC(=O)O)CC3)cc1 [Example 33, 7-[[4-[N^2-(2-furfuryl)amidino]benzoyl]amino]-1,2,3,4-tetrahydroisoquinoline-2-acetic acid dihydrochloride] | – | – | 160 nM | –
C#CCN(C)C(=N)c1ccc(C(=O)Nc2ccc3c(c2)CC(CC(=O)O)CC3)cc1 (stereo not shown) [Example 35, 7-[[4-(N^2-methyl-N^2-propargylamidino)benzoyl]amino]-1,2,3,4-tetrahydronaphthalene-2-acetic acid hydrochloride] | – | – | 160 nM | –
N=C(NCc1cccs1)c1ccc(C(=O)Nc2ccc3c(c2)CC(CC(=O)O)CC3)cc1 (stereo not shown) [Example 37, 7-[[4-[N^2-(2-thenyl)amidino]benzoyl]amino]-1,2,3,4-tetrahydronaphthalene-2-acetic acid hydrochloride] | 0.04 nM | 220 nM | – | –
CCOC(=O)CC1CCc2ccc(NC(=O)c3ccc(C(=N)NCc4cccnc4)cc3)cc2C1 (stereo not shown) [Example 40, ethyl 7-[[4-[N^2-(3-picolyl)amidino]benzoyl]amino]-1,2,3,4-tetrahydronaphthalene-2-acetatedihydrochloride] | – | 110 nM | – | > 90%
CCCN=C(N)c1ccc(C(=O)Nc2ccc3c(c2)CC(CC(=O)OCC)CC3)cc1 (stereo not shown) [Reference Example 9, ethyl 7-[[4-[N^2-(n-propyl)amidino]benzoyl]amino]-1,2,3,4-tetrahydronaphthalene-2-acetate hydrochloride, reference compound] | – | 520 nM | – | 3%
